Results taken from patent US12226412B2, “Heteroaryl-ketone fused azadecalin glucocorticoid receptor modulators” (Corcept Therapeutics, Inc., priority 2012, dated 2025).
pKi: −log10 of the molar value. Where two headings read alike, the source gives them in different places.

Assays:
human recombinant GR = target: T1, human recombinant GR (Homo sapiens, UniProt P04150); test: Human glucocorticoid receptor (GR) fluorescence polarisation (FP) binding assay
T1 construct: purchased PanVera P2812
T1 sequence (P04150 1-777): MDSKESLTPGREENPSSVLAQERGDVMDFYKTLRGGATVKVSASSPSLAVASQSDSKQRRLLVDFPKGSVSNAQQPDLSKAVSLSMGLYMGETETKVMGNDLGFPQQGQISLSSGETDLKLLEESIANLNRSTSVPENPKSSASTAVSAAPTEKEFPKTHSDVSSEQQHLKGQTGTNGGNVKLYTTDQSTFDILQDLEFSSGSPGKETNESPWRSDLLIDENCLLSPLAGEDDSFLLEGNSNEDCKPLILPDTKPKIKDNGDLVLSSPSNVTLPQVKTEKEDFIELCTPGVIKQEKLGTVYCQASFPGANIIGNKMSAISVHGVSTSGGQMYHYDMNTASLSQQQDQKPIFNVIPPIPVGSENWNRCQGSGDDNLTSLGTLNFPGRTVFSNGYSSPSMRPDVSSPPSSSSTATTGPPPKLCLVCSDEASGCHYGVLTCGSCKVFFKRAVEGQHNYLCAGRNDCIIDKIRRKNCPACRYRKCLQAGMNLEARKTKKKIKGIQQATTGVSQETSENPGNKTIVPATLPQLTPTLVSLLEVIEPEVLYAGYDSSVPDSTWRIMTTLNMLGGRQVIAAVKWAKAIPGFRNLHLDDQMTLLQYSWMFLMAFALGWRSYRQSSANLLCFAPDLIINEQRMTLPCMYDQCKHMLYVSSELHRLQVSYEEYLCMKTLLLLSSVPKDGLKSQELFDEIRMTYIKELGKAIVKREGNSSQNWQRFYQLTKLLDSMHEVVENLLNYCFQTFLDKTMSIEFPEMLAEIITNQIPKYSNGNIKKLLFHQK
Procedure: Human Glucocorticoid Receptor (GR) Fluorescence Polarisation (FP) Binding Assay
The following is a description of a FP assay for measuring compound inhibition of labelled glucocorticoid binding to the human recombinant GR.
The binding affinity of test compounds was determined using a FP binding assay using human recombinant GR (PanVera P2812) and a fluorescent labelled glucocorticoid ligand (Fluorome GS Red) (PanVera P2894). The presence of inhibitors prevents the formation of a GS Red/GR complex resulting in a decrease in the measured polarisation value. The change in polarisation value in the presence of test compounds is used to calculate the binding affinity of the compound for GR.
This assay was performed in 384 well, black, round-bottom, polypropylene micro titre plates in a final volume of 20 μl. The assay contained 5 μl 1 nM GR (final concentration), 5 μl 0.5 nM Fluorome GS Red (final concentration) in the presence of 10 μl test compounds. Positive control wells (high polarisation) receive, 10 μl 2% (v: v) DMSO vehicle (1% (v/v) final concentration)+5 μl 1 nM GR and 5 μl 0.5 nM Fluorome GS Red. […] Assay blank background wells (used for normalisation) receive 15 μl 1× GS screening buffer+5 μl GR.
Compounds were prepared as solubilised solids at 10 mM in DMSO. On the day of assay, an 8 point half-log serial dilution (55 μl DMSO+25 μl compound solution) was prepared. A 1:50 dilution (1 μl compound solution+49 μl 1× GR screening buffer) was prepared for each compound. The compounds were prepared at 2× final assay concentration.
The plates were mixed and incubated for 4 hour at room temperature.
10× GR screening buffer (100 mM potassium phosphate pH 7.4, 200 mM Na2MoO4, 1 mM EDTA, 20% (v/v) DMSO). To prepare 1× GR screening buffer, combine 1 ml 10× GR screening buffer (PanVera P2814)+1 ml stabilising peptide (PanVera P2815)+7.95 ml 4° C. MQ water. Add 50 μl 1M DTT, vortex and place on ice until use.

[1] = tested on: induction of TAT by dexamethasone in HepG2 cells; test: HepG2 tyrosine aminotransferase (TAT) assay; type: cell-based, human
Procedure: Example 21. HepG2 Tyrosine Aminotransferase (TAT) Assay
Glucocorticoid mediated activation of TAT occurs by transactivation of glucocorticoid response elements in the TAT promoter by glucocorticoid receptor agonist complex.
TAT activity was measured as outlined in the literature by A. Ali et al., J. Med. Chem., 2004, 47, 2441-2452.
HepG2 cells were cultured using MEME media supplemented with 10% (v/v) foetal bovine serum; 2 mM L-glutamine and 1% (v/v) NEAA at 37° C., 5%/95% (v/v) CO2/air. The HepG2 cells were counted and adjusted to yield a density of 0.125×10^6 cells/ml in RPMI 1640 without phenol red, 10% (v/v) charcoal stripped FBS, 2 mM L-glutamine and seeded at 25,000 cells/well in 200 μl into 96 well, sterile, tissue culture micro titre plates, and incubated at 37° C., 5% CO2 for 24 hours
Growth media was removed and replaced with assay media {RPMI 1640 without phenol red, 2 mM L-glutamine+10 μM forskolin}. […] Compounds were serially half log diluted in 100% (v/v) dimethylsupfoxide from a 10 mM stock.
HepG2 cells were then lysed with 30 μl of cell lysis buffer containing a protease inhibitor cocktail for 15 minutes at 4° C. 155 μl of substrate mixture was then added containing 5.4 mM Tyrosine sodium salt, 10.8 mM alpha ketoglutarate and 0.06 mM pyridoxal 5′ phosphate in 0.1M potassium phosphate buffer (pH 7.4). After 2 hours incubation at 37° C. the reaction was terminated by the addition of 15 μl of 10M aqueous potassium hydroxide solution, and the plates incubated for a further 30 minutes at 37° C. The TAT activity product was measured by absorbance at […].
[compound] and fitting the data to a 4 parameter logistic equation.

[2] = human recombinant GR, fluorescence polarisation binding assay, read-out: GR binding
[3] = HepG2 cells, challenge of 100 nM dexamethasone, Ki from IC50 by Cheng and Prusoff equation

| SMILES | pKi (human recombinant GR; [2]) | pKi [1, 3] | pKi (human recombinant GR) | pKi [1] |
| --- | --- | --- | --- | --- |
| Cc1ccnc(C(=O)[C@]23Cc4cnn(-c5ccc(F)cc5)c4C=C2CCN(S(=O)(=O)c2cccc(C(=O)O)c2)C3)c1 [Example 11AW, (R)-3-((1-(4-fluorophenyl)-4a-(4-methylpicolinoyl)-4a,5,7,8-tetrahydro-1H-pyrazolo[3,4-g]isoquinolin-6 (4H)-yl)sulfonyl)benzoic acid] | > 9.30 | ≤ 7.00 |  |  |
| Cc1ccnc(C(=O)[C@]23Cc4cnn(-c5ccc(F)cc5)c4C=C2CCN(S(=O)(=O)c2cccc(C(F)(F)F)n2)C3)c1 [Example 11AE, (R)-(1-(4-fluorophenyl)-6-((6-(trifluoromethyl)pyridin-2-yl)sulfonyl)-4,4a,5,6,7,8-hexahydro-1H-pyrazolo[3,4-g]isoquinolin-4a-yl)(4-methylpyridin-2-yl)methanone] | > 9.30 | > 7.70 |  |  |
| CS(=O)(=O)c1cccc(S(=O)(=O)N2CCC3=Cc4c(cnn4-c4ccc(F)cc4)C[C@]3(C(=O)c3ccccn3)C2)c1 [Example 11Y, (R)-(1-(4-fluorophenyl)-6-((3-(methylsulfonyl)phenyl)sulfonyl)-4,4a,5,6,7,8-hexahydro-1H-pyrazolo[3,4-g]isoquinolin-4a-yl)(pyridin-2-yl)methanone] | > 9.30 | 7.00 to 7.70 |  |  |
| Cc1ccnc(C(=O)[C@]23Cc4cnn(-c5ccc(F)cc5)c4C=C2CCN(S(=O)(=O)c2ccc(F)c(C)c2)C3)c1 [Example 11AL, (R)-(6-((4-fluoro-3-methylphenyl)sulfonyl)-1-(4-fluorophenyl)-4,4a,5,6,7,8-hexahydro-1H-pyrazolo[3,4-g]isoquinolin-4a-yl)(4-methylpyridin-2-yl)methanone] | > 9.30 | > 7.70 |  |  |
| O=C(c1ccccn1)[C@]12Cc3cnn(-c4ccc(F)cc4)c3C=C1CCN(S(=O)(=O)c1ccc(N3CCCC3)nc1)C2 [Example 8, (R)-(1-(4-fluorophenyl)-6-((6-(pyrrolidin-1-yl)pyridin-3-yl)sulfonyl)-4,4a,5,6,7,8-hexahydro-1H-pyrazolo[3,4-g]isoquinolin-4a-yl)(pyridin-2-yl)methanone] | > 9.30 | ≤ 7.00 |  |  |
| O=C(c1ccccn1)[C@]12Cc3cnn(-c4ccc(F)cc4)c3C=C1CCN(S(=O)(=O)c1ccc(Cl)c(F)c1)C2 [Example 2H, (R)-(6-((4-chloro-3-fluorophenyl)sulfonyl)-1-(4-fluorophenyl)-4,4a,5,6,7,8-hexahydro-1H-pyrazolo[3,4-g]isoquinolin-4a-yl)(pyridin-2-yl)methanone] | > 9.30 | > 7.70 |  |  |
| O=C(c1cccnc1)[C@]12Cc3cnn(-c4ccc(F)cc4)c3C=C1CCN(S(=O)(=O)c1ccc(C(F)(F)F)cc1)C2 [Example 1B, (R)-(1-(4-fluorophenyl)-6-((4-(trifluoromethyl)phenyl)sulfonyl)-4,4a,5,6,7,8-hexahydro-1H-pyrazolo[3,4-g]isoquinolin-4a-yl)(pyridin-3-yl)methanone] |  |  | 9.00 to 9.30 | < 7.00 |
| CCn1nncc1S(=O)(=O)N1CCC2=Cc3c(cnn3-c3ccc(F)cc3)C[C@]2(C(=O)c2ccccn2)C1 [Example 11CI, (R)-(6-((1-ethyl-1H-1,2,3-triazol-5-yl)sulfonyl)-1-(4-fluorophenyl)-4,4a,5,6,7,8-hexahydro-1H-pyrazolo[3,4-g]isoquinolin-4a-yl)(pyridin-2-yl)methanone] | < 9.00 | 7.00 to 7.70 |  |  |
| Cc1cnc(C(=O)[C@]23Cc4cnn(-c5ccc(F)cc5)c4C=C2CCN(S(=O)(=O)c2ccc(F)c(F)c2)C3)s1 [Example 12Q, (R)-(6-((3,4-difluorophenyl)sulfonyl)-1-(4-fluorophenyl)-4,4a,5,6,7,8-hexahydro-1H-pyrazolo[3,4-g]isoquinolin-4a-yl)(5-methylthiazol-2-yl)methanone] | < 9.00 | > 7.70 |  |  |
| COc1ccc(S(=O)(=O)N2CCC3=Cc4c(cnn4-c4ccc(F)cc4)C[C@]3(C(=O)c3ccccn3)C2)cc1Cl [Example 11C, (R)-(6-((3-chloro-4-methoxyphenyl)sulfonyl)-1-(4-fluorophenyl)-4,4a,5,6,7,8-hexahydro-1H-pyrazolo[3,4-g]isoquinolin-4a-yl)(pyridin-2-yl)methanone] | > 9.30 | 7.00 to 7.70 |  |  |
| Cc1ccnc(C(=O)[C@]23Cc4cnn(-c5ccc(F)cc5)c4C=C2CCN(S(=O)(=O)c2cccc(C#N)c2)C3)c1 [Example 11S, (R)-3-((1-(4-fluorophenyl)-4a-(4-methylpicolinoyl)-4a,5,7,8-tetrahydro-1H-pyrazolo[3,4-g]isoquinolin-6 (4H)-yl)sulfonyl)benzonitrile] | > 9.30 | > 7.70 |  |  |
| O=C(c1cscn1)[C@]12Cc3cnn(-c4ccc(F)cc4)c3C=C1CCN(S(=O)(=O)c1ccc(F)c(F)c1)C2 [Example 11BU, (R)-(6-((3,4-difluorophenyl)sulfonyl)-1-(4-fluorophenyl)-4,4a,5,6,7,8-hexahydro-1H-pyrazolo[3,4-g]isoquinolin-4a-yl)(thiazol-4-yl)methanone] | < 9.00 | 7.00 to 7.70 |  |  |
| Cc1ccc(S(=O)(=O)N2CCC3=Cc4c(cnn4-c4ccc(F)cc4)C[C@]3(C(=O)c3ccccn3)C2)c(F)c1 [Example 11E, (R)-(6-((2-fluoro-4-methylphenyl)sulfonyl)-1-(4-fluorophenyl)-4,4a,5,6,7,8-hexahydro-1H-pyrazolo[3,4-g]isoquinolin-4a-yl)(pyridin-2-yl)methanone] | > 9.30 | 7.00 to 7.70 |  |  |
| Cc1ccc(S(=O)(=O)N2CCC3=Cc4c(cnn4-c4ccc(F)cc4)C[C@]3(C(=O)c3ccccn3)C2)cc1F [Example 2J, (R)-(6-((3-fluoro-4-methylphenyl)sulfonyl)-1-(4-fluorophenyl)-4,4a,5,6,7,8-hexahydro-1H-pyrazolo[3,4-g]isoquinolin-4a-yl)(pyridin-2-yl)methanone] | > 9.30 | > 7.70 |  |  |
| CN(C)c1ccc(S(=O)(=O)N2CCC3=Cc4c(cnn4-c4ccc(F)cc4)C[C@]3(C(=O)c3ccccn3)C2)cn1 [Example 16, (R)-(6-((6-(dimethylamino)pyridin-3-yl)sulfonyl)-1-(4-fluorophenyl)-4,4a,5,6,7,8-hexahydro-1H-pyrazolo[3,4-g]isoquinolin-4a-yl)(pyridin-2-yl)methanone] | > 9.30 | 7.00 to 7.70 |  |  |
